This note sets out measurements from article PMC4067149 (Biochemistry, 2014).

For this assay, the target named is T1, DEBS AT3 (Saccharopolyspora erythraea, UniProt Q03132).
T1 sequence (Q03132 460-880 limits assumed): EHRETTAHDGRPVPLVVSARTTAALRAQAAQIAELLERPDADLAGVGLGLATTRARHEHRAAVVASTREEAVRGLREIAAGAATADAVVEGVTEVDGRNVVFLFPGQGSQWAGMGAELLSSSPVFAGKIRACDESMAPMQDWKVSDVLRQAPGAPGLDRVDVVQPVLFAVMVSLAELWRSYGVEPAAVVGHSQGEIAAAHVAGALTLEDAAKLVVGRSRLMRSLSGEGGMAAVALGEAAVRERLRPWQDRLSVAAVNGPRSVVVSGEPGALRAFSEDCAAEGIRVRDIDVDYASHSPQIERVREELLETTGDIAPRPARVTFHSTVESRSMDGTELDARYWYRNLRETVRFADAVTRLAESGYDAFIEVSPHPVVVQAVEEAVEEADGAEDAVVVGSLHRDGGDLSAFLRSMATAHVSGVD
The experiment in a line: alpha-KGDH coupled fluorometric NADH assay, hydrolysis. The conditions noted are these: no ACP, pH 7.6, 10% glycerol. Type of assay: biochemical.

As to `CC(C(=O)O)C(=O)SCCNC(=O)CCNC(=O)[C@H](O)C(C)(C)COP(=O)(O)OP(=O)(O)OC[C@H]1O[C@@H](n2cnc3c(N)ncnc32)[C@H](O)[C@@H]1OP(=O)(O)O` (stereo partly shown) [MMCoA, methylmalonyl-CoA], the “alpha-KGDH coupled fluorometric NADH assay, hydrolysis” value is reported as “DEBS AT3 showed the highest rate of hydrolysis with its natural substrate, methylmalonyl-CoA”.
